The numbers were not newly measured in paper PMC8287724, “Reducing Auditory Nerve Excitability by Acute Antagonism of Ca^2+-Permeable AMPA Receptors” (Frontiers in Synaptic Neuroscience, 2021), which cites them from elsewhere.

As a reminder, the IC50 is the concentration needed to halve the response being measured.

The subject of the data set is GluA2-lacking AMPARs. Set-up: method as in Magazanik et al., 1997; Buldakova et al., 1999. The conditions noted are these: ref Magazanik et al., 1997; Buldakova et al., 1999; read-out: IC50 on cells expressing GluA2-lacking AMPARs; cited from earlier work.

Molecules are shown by their SMILES.

On to `C[N+](C)(C)CCCCCNCC12CC3CC(CC(C3)C1)C2` [IEM-1460], for which the IC50 was 1 to 3 µM.
